The target of assay [1] is Inosine-5'-monophosphate dehydrogenase (Cryptococcus neoformans var. neoformans serotype D (strain JEC21 /ATCC MYA-565) (Filobasidiella neoformans)) (UniProt Q5KP44). Kind of assay: Inhibition of recombinant Cryptococcus neoformans His-tagged IMPDH expressed in Escherichia coli BL21 (DE3) using IMP as substrate and DTT containing buffer in presence of NAD.
Assay [2] is described as follows: Selectivity index, ratio of IC50 for recombinant human His-tagged IMPDH1 to IC50 for recombinant Cryptococcus neoformans His-tagged IMPDH.
Assay [3] is described as follows: Selectivity index, ratio of IC50 for recombinant human His-tagged IMPDH2 to IC50 for recombinant Cryptococcus neoformans His-tagged IMPDH.

Activity calls are given as the source filed them. No cut-off for these calls is given here.

Inosine-5'-monophosphate dehydrogenase (Cryptococcus neoformans var. neoformans serotype D (strain JEC21 /ATCC MYA-565) (Filobasidiella neoformans)), sequence (Q5KP44 whole entry, looked up): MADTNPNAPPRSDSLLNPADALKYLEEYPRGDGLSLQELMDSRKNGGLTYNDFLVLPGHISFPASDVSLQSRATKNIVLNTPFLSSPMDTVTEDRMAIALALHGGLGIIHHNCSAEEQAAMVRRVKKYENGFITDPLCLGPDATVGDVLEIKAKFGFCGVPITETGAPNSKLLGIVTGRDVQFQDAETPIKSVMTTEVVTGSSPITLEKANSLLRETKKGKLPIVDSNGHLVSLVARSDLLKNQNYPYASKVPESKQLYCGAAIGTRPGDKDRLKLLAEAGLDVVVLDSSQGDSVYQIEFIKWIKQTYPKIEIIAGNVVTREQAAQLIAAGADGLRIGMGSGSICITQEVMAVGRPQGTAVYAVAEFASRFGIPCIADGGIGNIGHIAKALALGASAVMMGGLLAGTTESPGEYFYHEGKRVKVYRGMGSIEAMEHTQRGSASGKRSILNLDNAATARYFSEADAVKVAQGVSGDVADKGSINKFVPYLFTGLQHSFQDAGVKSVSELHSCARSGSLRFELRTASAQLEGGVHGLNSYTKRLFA

In the case of `COc1ccccc1-c1nnc(SC2=CS(=O)(=O)c3ccccc32)o1`, in assay [1], the inhibition entry is “inactive”. In the case of `COc1ccc(-c2nnc(SC3=CS(=O)(=O)c4ccccc43)o2)cc1`, the Ratio IC50 in assay [2] and in assay [3] was greater than 30 in each case.

Consider `COC(=O)c1ccc(-c2nnc(SC3=CS(=O)(=O)c4ccccc43)o2)cc1`, for which the Ratio IC50 in assay [2] and in assay [3] was greater than 30 in each case. For the compound `O=S1(=O)C=C(Sc2nnc(-c3ccccc3)o2)c2ccccc21`, the inhibition result in assay [1] was “inactive”.

Values taken from ChEMBL document CHEMBL4265991.
